{"source": "ChEMBL document CHEMBL1148101", "about": "“Structure/activity relationship of some natural monoterpenes as acaricides against Psoroptes cuniculi” (1995)", "format_in_all_cases": "functional", "key": {"Psoroptes ovis [1]": {"test_system": "Psoroptes ovis", "experiment": "Acaricidal activity against Psoroptes cuniculi at 1% dilution in physiological saline after 48 hrs by direct contact assay"}, "Psoroptes ovis [2]": {"test_system": "Psoroptes ovis", "experiment": "Acaricidal activity against Psoroptes cuniculi at 0.25% dilution in physiological saline after 48 hrs by direct contact assay"}, "Psoroptes ovis [3]": {"test_system": "Psoroptes ovis", "experiment": "Acaricidal activity against Psoroptes cuniculi at 0.125% dilution in physiological saline after 48 hrs by direct contact assay"}, "Psoroptes ovis [4]": {"test_system": "Psoroptes ovis", "experiment": "Acaricidal activity against Psoroptes cuniculi at 6 uL after 24 hrs by inhalation assay"}, "Psoroptes ovis [5]": {"test_system": "Psoroptes ovis", "experiment": "Acaricidal activity against Psoroptes cuniculi at 3 uL after 24 hrs by inhalation assay"}, "Psoroptes ovis [6]": {"test_system": "Psoroptes ovis", "experiment": "Acaricidal activity against Psoroptes cuniculi at 1 uL after 24 hrs by inhalation assay"}, "Psoroptes ovis [7]": {"test_system": "Psoroptes ovis", "experiment": "Acaricidal activity against Psoroptes cuniculi at 36 uL after 24 hrs by inhalation assay"}, "Psoroptes ovis [8]": {"test_system": "Psoroptes ovis", "experiment": "Acaricidal activity against Psoroptes cuniculi at 18 uL after 24 hrs by inhalation assay"}}, "data": [{"smiles": "CC1=CC[C@@H](C(C)(C)O)CC1", "note": "[ALPHA-TERPINEOL]", "values": [{"measurement": "Activity", "setting": "Psoroptes ovis [1]", "value": 100, "unit": "%"}, {"measurement": "Activity", "setting": "Psoroptes ovis [2]", "value": 100, "unit": "%"}, {"measurement": "Activity", "setting": "Psoroptes ovis [3]", "value": 100, "unit": "%"}, {"measurement": "Activity", "setting": "Psoroptes ovis [4]", "value": 98.3, "unit": "%"}, {"measurement": "Activity", "setting": "Psoroptes ovis [5]", "value": 98.3, "unit": "%"}, {"measurement": "Activity", "setting": "Psoroptes ovis [6]", "value": 73.3, "unit": "%"}]}, {"smiles": "C=C(C)[C@H]1CC=C(C)CC1", "note": "[D-LIMONENE]", "values": [{"measurement": "Activity", "setting": "Psoroptes ovis [1]", "value": 0, "unit": "%"}, {"measurement": "Activity", "setting": "Psoroptes ovis [2]", "value": 0, "unit": "%"}, {"measurement": "Activity", "setting": "Psoroptes ovis [3]", "value": 0, "unit": "%"}, {"measurement": "Activity", "setting": "Psoroptes ovis [4]", "value": 0, "unit": "%"}, {"measurement": "Activity", "setting": "Psoroptes ovis [5]", "value": 0, "unit": "%"}, {"measurement": "Activity", "setting": "Psoroptes ovis [6]", "value": 0, "unit": "%"}]}, {"smiles": "C=CCc1ccc(OC)cc1", "note": "[ESTRAGOLE]", "values": [{"measurement": "Activity", "setting": "Psoroptes ovis [1]", "value": 100, "unit": "%"}, {"measurement": "Activity", "setting": "Psoroptes ovis [2]", "value": 63.3, "unit": "%"}, {"measurement": "Activity", "setting": "Psoroptes ovis [3]", "value": 0, "unit": "%"}, {"measurement": "Activity", "setting": "Psoroptes ovis [4]", "value": 5, "unit": "%"}, {"measurement": "Activity", "setting": "Psoroptes ovis [5]", "value": 6.7, "unit": "%"}, {"measurement": "Activity", "setting": "Psoroptes ovis [6]", "value": 0, "unit": "%"}]}, {"smiles": "C=CCc1ccc(O)c(OC)c1", "note": "[EUGENOL]", "values": [{"measurement": "Activity", "setting": "Psoroptes ovis [1]", "value": 100, "unit": "%"}, {"measurement": "Activity", "setting": "Psoroptes ovis [2]", "value": 100, "unit": "%"}, {"measurement": "Activity", "setting": "Psoroptes ovis [3]", "value": 100, "unit": "%"}, {"measurement": "Activity", "setting": "Psoroptes ovis [4]", "value": 100, "unit": "%"}, {"measurement": "Activity", "setting": "Psoroptes ovis [5]", "value": 96.7, "unit": "%"}, {"measurement": "Activity", "setting": "Psoroptes ovis [6]", "value": 86.7, "unit": "%"}]}, {"smiles": "CC1=CCC(C(C)C)=CC1", "note": "[GAMMA-TERPINENE]", "values": [{"measurement": "Activity", "setting": "Psoroptes ovis [1]", "value": 0, "unit": "%"}, {"measurement": "Activity", "setting": "Psoroptes ovis [2]", "value": 0, "unit": "%"}, {"measurement": "Activity", "setting": "Psoroptes ovis [3]", "value": 0, "unit": "%"}, {"measurement": "Activity", "setting": "Psoroptes ovis [4]", "value": 0, "unit": "%"}, {"measurement": "Activity", "setting": "Psoroptes ovis [5]", "value": 0, "unit": "%"}, {"measurement": "Activity", "setting": "Psoroptes ovis [6]", "value": 0, "unit": "%"}]}, {"smiles": "CC(C)=CCC/C(C)=C/CO", "note": "[GERANIOL]", "values": [{"measurement": "Activity", "setting": "Psoroptes ovis [1]", "value": 100, "unit": "%"}, {"measurement": "Activity", "setting": "Psoroptes ovis [2]", "value": 100, "unit": "%"}, {"measurement": "Activity", "setting": "Psoroptes ovis [3]", "value": 100, "unit": "%"}, {"measurement": "Activity", "setting": "Psoroptes ovis [4]", "value": 96.7, "unit": "%"}, {"measurement": "Activity", "setting": "Psoroptes ovis [5]", "value": 93.3, "unit": "%"}, {"measurement": "Activity", "setting": "Psoroptes ovis [6]", "value": 95, "unit": "%"}]}, {"smiles": "C=CC(C)(O)CCC=C(C)C", "note": "(stereo not drawn) [LINALOOL]", "values": [{"measurement": "Activity", "setting": "Psoroptes ovis [1]", "value": 100, "unit": "%"}, {"measurement": "Activity", "setting": "Psoroptes ovis [2]", "value": 100, "unit": "%"}, {"measurement": "Activity", "setting": "Psoroptes ovis [3]", "value": 97, "unit": "%"}, {"measurement": "Activity", "setting": "Psoroptes ovis [4]", "value": 100, "unit": "%"}, {"measurement": "Activity", "setting": "Psoroptes ovis [5]", "value": 75, "unit": "%"}, {"measurement": "Activity", "setting": "Psoroptes ovis [6]", "value": 36.7, "unit": "%"}]}, {"smiles": "C=CC(C)(CCC=C(C)C)OC(C)=O", "note": "(stereo not drawn) [LINALYL ACETATE]", "values": [{"measurement": "Activity", "setting": "Psoroptes ovis [1]", "value": 40, "unit": "%"}, {"measurement": "Activity", "setting": "Psoroptes ovis [2]", "value": 35, "unit": "%"}, {"measurement": "Activity", "setting": "Psoroptes ovis [3]", "value": 5, "unit": "%"}, {"measurement": "Activity", "setting": "Psoroptes ovis [4]", "value": 20, "unit": "%"}, {"measurement": "Activity", "setting": "Psoroptes ovis [5]", "value": 13.3, "unit": "%"}, {"measurement": "Activity", "setting": "Psoroptes ovis [6]", "value": 0, "unit": "%"}]}, {"smiles": "CC1CCC(C(C)C)C(O)C1", "note": "(stereo not drawn) [MENTHOL]", "values": [{"measurement": "Activity", "setting": "Psoroptes ovis [1]", "value": 100, "unit": "%"}, {"measurement": "Activity", "setting": "Psoroptes ovis [2]", "value": 100, "unit": "%"}, {"measurement": "Activity", "setting": "Psoroptes ovis [3]", "value": 100, "unit": "%"}, {"measurement": "Activity", "setting": "Psoroptes ovis [4]", "value": 100, "unit": "%"}, {"measurement": "Activity", "setting": "Psoroptes ovis [7]", "value": 100, "unit": "%"}, {"measurement": "Activity", "setting": "Psoroptes ovis [8]", "value": 100, "unit": "%"}]}, {"smiles": "C=CC(=C)CCC=C(C)C", "note": "[MYRCENE]", "values": [{"measurement": "Activity", "setting": "Psoroptes ovis [1]", "value": 0, "unit": "%"}, {"measurement": "Activity", "setting": "Psoroptes ovis [2]", "value": 0, "unit": "%"}, {"measurement": "Activity", "setting": "Psoroptes ovis [3]", "value": 0, "unit": "%"}, {"measurement": "Activity", "setting": "Psoroptes ovis [4]", "value": 6.7, "unit": "%"}, {"measurement": "Activity", "setting": "Psoroptes ovis [5]", "value": 5.2, "unit": "%"}, {"measurement": "Activity", "setting": "Psoroptes ovis [6]", "value": 0, "unit": "%"}]}, {"smiles": "CC(C)=CCC/C(C)=C\\CO", "note": "[NEROL]", "values": [{"measurement": "Activity", "setting": "Psoroptes ovis [1]", "value": 100, "unit": "%"}, {"measurement": "Activity", "setting": "Psoroptes ovis [2]", "value": 98.3, "unit": "%"}, {"measurement": "Activity", "setting": "Psoroptes ovis [3]", "value": 100, "unit": "%"}, {"measurement": "Activity", "setting": "Psoroptes ovis [4]", "value": 100, "unit": "%"}, {"measurement": "Activity", "setting": "Psoroptes ovis [5]", "value": 83.3, "unit": "%"}, {"measurement": "Activity", "setting": "Psoroptes ovis [6]", "value": 36.7, "unit": "%"}]}, {"smiles": "CC1=CCC(O)(C(C)C)CC1", "note": "(stereo not drawn) [TERPINEOL]", "values": [{"measurement": "Activity", "setting": "Psoroptes ovis [1]", "value": 100, "unit": "%"}, {"measurement": "Activity", "setting": "Psoroptes ovis [2]", "value": 100, "unit": "%"}, {"measurement": "Activity", "setting": "Psoroptes ovis [3]", "value": 100, "unit": "%"}, {"measurement": "Activity", "setting": "Psoroptes ovis [4]", "value": 100, "unit": "%"}, {"measurement": "Activity", "setting": "Psoroptes ovis [5]", "value": 41.7, "unit": "%"}, {"measurement": "Activity", "setting": "Psoroptes ovis [6]", "value": 5, "unit": "%"}]}, {"smiles": "Cc1ccc(C(C)C)c(O)c1", "note": "[THYMOL]", "values": [{"measurement": "Activity", "setting": "Psoroptes ovis [1]", "value": 100, "unit": "%"}, {"measurement": "Activity", "setting": "Psoroptes ovis [2]", "value": 100, "unit": "%"}, {"measurement": "Activity", "setting": "Psoroptes ovis [3]", "value": 100, "unit": "%"}, {"measurement": "Activity", "setting": "Psoroptes ovis [4]", "value": 100, "unit": "%"}, {"measurement": "Activity", "setting": "Psoroptes ovis [7]", "value": 100, "unit": "%"}, {"measurement": "Activity", "setting": "Psoroptes ovis [8]", "value": 100, "unit": "%"}]}]}
